Experimental data published in patent US8288375B2, “Fungicidal bicyclic pyrazoles” (E.I. du Pont de Nemours and Company, priority 2007, dated 2012).

Legend:
[1] = tested on: Botrytis cinerea; experiment: Test H: tomato Botrytis, test suspension sprayed on tomato seedlings, disease rating; assay type: in vivo; conditions: 200 ppm test suspension; for pest or weed control at 200 ppm: Botrytis cinerea, 120 h
[2] = tested on: Fusarium graminearum; experiment: whole plant or invertebrate; assay type: in vivo; conditions: Fusarium graminearum, in Triticum aestivum, 192 h, read-out: Test C disease control rating
[3] = tested on: Colletotrichum orbiculare; experiment: Test F: cucumber Colletotrichum anthracnose, test suspension sprayed on cucumber seedlings, disease rating; assay type: in vivo; conditions: 200 ppm test suspension; for pest or weed control at 200 ppm: Colletotrichum orbiculare, 144 h
[4] = tested on: Phytophthora infestans; experiment: whole plant or invertebrate; assay type: in vivo; conditions: for pest or weed control at 200 ppm / pest or weed control at 40 ppm: Phytophthora infestans, in Solanum lycopersicum, 120 h, read-out: Test J disease control rating
[5] = tested on: Pythium aphanidermatum; experiment: Test L: bluegrass pythium blight, test suspension sprayed on bluegrass seedlings, disease rating; assay type: in vivo; conditions: for pest or weed control at 200 ppm / pest or weed control at 40 ppm: Pythium aphanidermatum, 120 h; for pest or weed control at 40 ppm: 40 ppm test suspension (*);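 for all read-outs here: 200 ppm unless marked * meaning 40 ppm or ** meaning 10 ppm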
[6] = tested on: Septoria tritici; experiment: Test E: wheat leaf blotch, test suspension sprayed on wheat seedlings, disease rating; assay type: in vivo; conditions: for pest or weed control at 200 ppm / pest or weed control at 40 ppm: Zymoseptoria tritici, 504 h; for pest or weed control at 40 ppm: 40 ppm test suspension (*);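 for all read-outs here: 200 ppm unless marked * meaning 40 ppm or ** meaning 10 ppm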
[7] = tested on: Puccinia recondite f sp. tritici; experiment: Test B: wheat leaf rust, test suspension sprayed on wheat seedlings, disease rating; assay type: in vivo; conditions: for pest or weed control at 200 ppm / pest or weed control at 40 ppm: Puccinia, 192 h; for pest or weed control at 40 ppm: 40 ppm test suspension (*);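 for all read-outs here: 200 ppm unless marked * meaning 40 ppm or ** meaning 10 ppm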
[8] = tested on: Septoria nodorum; experiment: Test D: wheat glume blotch, test suspension sprayed on wheat seedlings, disease rating; assay type: in vivo; conditions: 200 ppm test suspension; for pest or weed control at 200 ppm: Parastagonospora nodorum, 216 h
[9] = tested on: Erysiphe graminis f. sp. tritici; experiment: Test A: wheat powdery mildew, test suspension sprayed on wheat seedlings, disease rating; assay type: in vivo; conditions: 200 ppm test suspension, 100 = 100% disease control, 0 = no control; for pest or weed control at 200 ppm: Blumeria graminis, 192 h
[10] = tested on: Alternaria solani; experiment: Test G: tomato early blight, test suspension sprayed on seedlings, disease rating; assay type: in vivo; conditions: Alternaria solani, 168 h; for pest or weed control at 200 ppm: 200 ppm test suspension; for pest or weed control at 40 ppm: 40 ppm test suspension (*);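 for all read-outs here: 200 ppm unless marked * meaning 40 ppm or ** meaning 10 ppm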
[11] = tested on: Rhizoctonia oryzae; experiment: Test I: turf brown patch, test suspension sprayed on creeping bent grass seedlings, disease rating; assay type: in vivo; conditions: 200 ppm test suspension; for pest or weed control at 200 ppm: Waitea circinata, in Agrostis stolonifera, 120 h
[12] = tested on: Plasmopara viticola; experiment: Test K: grape downy mildew, grape seedlings inoculated and then sprayed, disease rating; assay type: in vivo; conditions: 200 ppm test suspension
[13] = tested on: Sclerotinia sclerotiorum; experiment: Test M: cucumber white mold, test suspension sprayed on cucumber seedlings, disease rating; assay type: in vivo; conditions: 200 ppm test suspension
From the text: General protocol for preparing test suspensions for Tests A-M: The test compounds were first dissolved in acetone in an amount equal to 3% of the final volume and then suspended at the desired concentration (in ppm) in acetone and purified water (50/50 mix) containing 250 ppm of the surfactant Trem® 014 (polyhydric alcohol esters). The resulting test suspensions were then used in Tests A-M. Spraying a 200 ppm test suspension to the point of run-off on the test plants was the equivalent of an application rate of 500 g/ha.
The test suspension was sprayed to the point of run-off on cucumber seedlings. The following day the seedlings were inoculated with a spore suspension of Sclerotinia sclerotiorum (the causal agent of cucumber white mold) and incubated in saturated atmosphere at 24° C. for 72 h, and then moved to a growth chamber at 24° C. for 3 additional days, after which time disease ratings were made.
Results for Tests A-M are given in Table A. In the table, a rating of 100 indicates 100% disease control and a rating of 0 indicates no disease control (relative to the controls). A dash (-) indicates no test results. All results are for 200 ppm test suspension except where followed by “*” which indicates 40 ppm or by “**” which indicates 10 ppm.

c1cc(-c2c(-c3ccsc3)nn3c2COCC3)nc(NC2CC2)n1 [Compound 121, N-cyclopropyl-4-[6,7-dihydro-2-(3-thienyl)-4H-pyrazolo[5,1-c][1,4]oxazin-3-yl]-2-pyrimidinamine]
pest or weed control at 200 ppm [1]: 66% | pest or weed control at 200 ppm [2]: 99% | pest or weed control at 200 ppm [3]: 15% | pest or weed control at 200 ppm [4]: 97% | melting point: 182 to 184 °C | pest or weed control at 200 ppm ([5]; 200 ppm test suspension): 99% | pest or weed control at 200 ppm ([6]; 200 ppm test suspension): 93% | pest or weed control at 200 ppm ([7]; 200 ppm test suspension): 94% | pest or weed control at 200 ppm [8]: 84% | pest or weed control at 200 ppm [9]: 0% | pest or weed control at 200 ppm [10]: 89%

CC(C)Nc1nccc(-c2c(-c3ccc(F)cc3)nn3c2COCC3)n1 [Compound 107, 4-[2-(4-fluorophenyl)-6,7-dihydro-4H-pyrazolo[5,1-c][1,4]oxazin-3-yl]-N-(1-methylethyl)-2-pyrimidinamine]
pest or weed control at 200 ppm [1]: 90% | pest or weed control at 200 ppm [2]: 99% | pest or weed control at 200 ppm [3]: 99% | pest or weed control at 200 ppm [4]: 100% | melting point: 144 to 146 °C | pest or weed control at 200 ppm ([5]; 200 ppm test suspension): 100% | pest or weed control at 200 ppm ([6]; 200 ppm test suspension): 100% | pest or weed control at 200 ppm [11]: 80% | pest or weed control at 200 ppm ([7]; 200 ppm test suspension): 99% | pest or weed control at 200 ppm [8]: 99% | pest or weed control at 200 ppm [9]: 92% | pest or weed control at 40 ppm [10]: 99%

Fc1ccc(-c2nn3c(c2-c2ccnc(NC4CC4)n2)CCCC3)cc1 [Compound 12, N-cyclopropyl-4-[2-(4-fluorophenyl)-4,5,6,7-tetrahydropyrazolo[1,5-a]pyridin-3-yl]-2-pyrimidinamine]
pest or weed control at 200 ppm [1]: 98% | pest or weed control at 200 ppm [2]: 100% | pest or weed control at 200 ppm [3]: 94% | pest or weed control at 200 ppm [4]: 100% | melting point: 164 to 165 °C | pest or weed control at 200 ppm ([5]; 200 ppm test suspension): 100% | pest or weed control at 200 ppm ([6]; 200 ppm test suspension): 100% | pest or weed control at 200 ppm [11]: 64% | pest or weed control at 200 ppm ([7]; 200 ppm test suspension): 99% | pest or weed control at 200 ppm [8]: 99% | pest or weed control at 200 ppm [9]: 97% | Test K disease control rating [12]: 0%

CCC(C)Nc1nccc(-c2c(-c3ccc(F)cc3)nn3c2CCCC3)n1 (stereo not shown) [compound 2]
Test H disease control rating [1]: 92% | Test F disease control rating [3]: 85% | Test J disease control rating ([4]; 200 ppm test suspension): 47% | Test L disease control rating ([5]; 200 ppm test suspension): 100% | Test E disease control rating ([6]; 200 ppm test suspension): 97% | Test I disease control rating [11]: 31% | Test M disease control rating [13]: 0% | Test B disease control rating ([7]; 200 ppm test suspension): 98% | Test D disease control rating [8]: 98% | Test A disease control rating [9]: 0% | Test K disease control rating [12]: 0%

CC(C)Nc1nccc(-c2c(-c3ccc(F)cc3)nn3c2CCCC3)n1 [Compound 8, 4-[2-(4-fluorophenyl)-4,5,6,7-tetrahydropyrazolo[1,5-a]pyridin-3-yl]-N-(1-methylethyl)-2-pyrimidinamine]
pest or weed control at 200 ppm [1]: 97% | pest or weed control at 200 ppm [2]: 100% | pest or weed control at 200 ppm [3]: 99% | pest or weed control at 200 ppm [4]: 100% | melting point: 178 to 180 °C | pest or weed control at 200 ppm ([5]; 200 ppm test suspension): 100% | pest or weed control at 200 ppm ([6]; 200 ppm test suspension): 100% | pest or weed control at 200 ppm [11]: 62% | pest or weed control at 200 ppm ([7]; 200 ppm test suspension): 99% | pest or weed control at 200 ppm [8]: 100% | pest or weed control at 200 ppm [9]: 81% | pest or weed control at 40 ppm [10]: 99%

CC(CO)Nc1nccc(-c2c(-c3ccc(F)cc3)nn3c2CCCN3)n1 (stereo not shown) [Compound 132, 2-[[4-[2-(4-fluorophenyl)-4,5,6,7-tetrahydropyrazolo[1,5-b]pyridazin-3-yl]-2-pyrimidinyl]amino]-1-propanol]
pest or weed control at 200 ppm [1]: 0% | pest or weed control at 40 ppm [2]: 0% | pest or weed control at 200 ppm [3]: 0% | pest or weed control at 40 ppm [4]: 65% | melting point: 165 to 167 °C | pest or weed control at 40 ppm [5]: 100% | pest or weed control at 40 ppm [6]: 0% | pest or weed control at 200 ppm [11]: 0% | pest or weed control at 40 ppm [7]: 88% | pest or weed control at 200 ppm [8]: 0% | pest or weed control at 200 ppm [9]: 66% | pest or weed control at 40 ppm [10]: 0%

CC(CO)Nc1nccc(-c2c(-c3ccc(F)cc3)nn3c2COCC3)n1 (stereo not shown) [Compound 108, 2-[[4-[2-(4-fluorophenyl)-6,7-dihydro-4H-pyrazolo[5,1-c][1,4]oxazin-3-yl]-2-pyrimidinyl]amino]-1-propanol]
pest or weed control at 200 ppm [2]: 98% | pest or weed control at 200 ppm [4]: 77% | melting point: 124 to 126 °C | pest or weed control at 200 ppm ([5]; 200 ppm test suspension): 100% | pest or weed control at 200 ppm ([6]; 200 ppm test suspension): 99% | pest or weed control at 200 ppm ([7]; 200 ppm test suspension): 99% | pest or weed control at 200 ppm [8]: 87% | pest or weed control at 200 ppm [9]: 43%

Fc1ccc(-c2nn3c(c2-c2ccnc(NC4CC4)n2)CCCN3)cc1 [Compound 131, N-cyclopropyl-4-[2-(4-fluorophenyl)-4,5,6,7-tetrahydropyrazolo[1,5-b]pyridazin-3-yl]-2-pyrimidinamine]
pest or weed control at 200 ppm [1]: 9% | pest or weed control at 200 ppm [2]: 100% | pest or weed control at 200 ppm [3]: 58% | pest or weed control at 200 ppm [4]: 97% | melting point: 184 to 187 °C | pest or weed control at 200 ppm ([5]; 200 ppm test suspension): 100% | pest or weed control at 200 ppm [11]: 57% | pest or weed control at 200 ppm ([7]; 200 ppm test suspension): 100% | pest or weed control at 200 ppm [8]: 87% | pest or weed control at 200 ppm [9]: 96% | Test K disease control rating [12]: 0% | pest or weed control at 200 ppm [10]: 81%

c1ccc(-c2nn3c(c2-c2ccnc(NC4CC4)n2)COCC3)cc1 [Compound 117, N-cyclopropyl-4-(6,7-dihydro-2-phenyl-4H-pyrazolo[5,1-c][1,4]oxazin-3-yl)-2-pyrimidinamine]
pest or weed control at 200 ppm [2]: 99% | pest or weed control at 200 ppm [4]: 95% | melting point: 186 to 189 °C | pest or weed control at 200 ppm ([5]; 200 ppm test suspension): 100% | pest or weed control at 200 ppm ([6]; 200 ppm test suspension): 98% | pest or weed control at 200 ppm ([7]; 200 ppm test suspension): 97% | pest or weed control at 200 ppm [8]: 98% | pest or weed control at 200 ppm [9]: 86%

COC(=O)N1CCn2nc(-c3ccc(F)cc3)c(-c3ccnc(NC(C)C)n3)c2C1 [Compound 138, methyl 2-(4-fluorophenyl)-6,7-dihydro-3-[2-[(1-methylethyl)amino]-4-pyrimidinyl]pyrazolo[1,5-a]pyrazine-5(4H)-carboxylate]
pest or weed control at 200 ppm [1]: 68% | pest or weed control at 40 ppm [2]: 86% | pest or weed control at 40 ppm [4]: 88% | melting point: 88 to 89 °C | pest or weed control at 40 ppm [5]: 99% | pest or weed control at 40 ppm [6]: 83% | pest or weed control at 200 ppm [11]: 0% | pest or weed control at 40 ppm [7]: 98% | pest or weed control at 200 ppm [8]: 99% | pest or weed control at 200 ppm [9]: 0% | pest or weed control at 40 ppm [10]: 99%
